Test results from ChEMBL document CHEMBL4715711, “Development of cyanopyridine-triazine hybrids as lead multitarget anti-Alzheimer agents” (Bioorg Med Chem, 2016).
Activity calls are given as the source filed them. The rule behind the calls is not given here.

Legend:
SH-SY5Y [1] = test: Cytotoxicity against human SH-SY5Y cells assessed as reduction in cell viability at 75 uM incubated for 48 hrs by MTT assay; format: cell-based
SH-SY5Y [2] = test: Cytotoxicity against human SH-SY5Y cells assessed as reduction in cell viability at 10 uM incubated for 48 hrs by MTT assay; format: cell-based
SH-SY5Y [3] = test: Neuroprotective activity against amyloid beta (1 to 42)-induced cell floating in human SH-SY5Y cells at 20 uM incubated for 24 hrs in presence of amyloid beta (1 to 42) by phase-contrast microscopic analysis; format: functional, cell-based
SH-SY5Y [4] = test: Inhibition of H2O2-induced cell death in human SH-SY5Y cells at 20 uM incubated for 24 hrs by microscopic analysis; format: functional, cell-based
SH-SY5Y [5] = test: Neuroprotective activity against amyloid beta (1 to 42)-induced cell fragmentation in human SH-SY5Y cells at 20 uM incubated for 24 hrs in presence of amyloid beta (1 to 42) by phase-contrast microscopic analysis; format: functional, cell-based
Acetylcholinesterase = Acetylcholinesterase (Electrophorus electricus, UniProt O42275); test: Inhibition of electric eel AchE using acetylthiocholine iodide as substrate incubated for 5 mins followed by substrate addition and measured after 2 mins by Ellman's method
Sequence of Acetylcholinesterase (O42275 whole entry): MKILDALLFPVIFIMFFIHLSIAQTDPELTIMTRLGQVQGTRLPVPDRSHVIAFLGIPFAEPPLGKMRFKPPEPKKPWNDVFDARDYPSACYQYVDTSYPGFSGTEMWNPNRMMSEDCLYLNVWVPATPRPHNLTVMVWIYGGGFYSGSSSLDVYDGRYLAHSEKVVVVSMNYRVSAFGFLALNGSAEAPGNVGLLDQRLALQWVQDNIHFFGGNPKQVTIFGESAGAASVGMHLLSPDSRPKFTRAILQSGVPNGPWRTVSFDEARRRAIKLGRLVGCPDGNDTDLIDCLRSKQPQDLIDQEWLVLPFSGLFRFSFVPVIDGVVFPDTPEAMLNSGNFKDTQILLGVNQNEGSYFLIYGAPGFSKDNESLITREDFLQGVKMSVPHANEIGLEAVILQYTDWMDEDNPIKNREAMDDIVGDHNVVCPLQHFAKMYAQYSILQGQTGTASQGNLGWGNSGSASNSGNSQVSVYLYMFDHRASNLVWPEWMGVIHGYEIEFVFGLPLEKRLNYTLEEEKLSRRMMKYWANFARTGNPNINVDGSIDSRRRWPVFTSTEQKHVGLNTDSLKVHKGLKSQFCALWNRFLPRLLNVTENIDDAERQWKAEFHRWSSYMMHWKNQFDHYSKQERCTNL

SH-SY5Y [6] = test: Inhibition of H2O2-induced ROS accumulation in human SH-SY5Y cells at 10 to 20 uM incubated for 24 hrs by […] probe based fluorescence assay; format: functional, cell-based; settings: dose 10-20 µM
SH-SY5Y [7] = test: Neuroprotective activity against amyloid beta (1 to 42)-induced neurotoxicity in human SH-SY5Y cells at 5 to 20 uM incubated for 48 hrs in presence of amyloid beta (1 to 42) by MTT assay; format: functional, cell-based; settings: dose 5-20 µM
SH-SY5Y [8] = test: Neuroprotective activity against amyloid beta (1 to 42)-induced loss of adherence in human SH-SY5Y cells at 20 uM incubated for 24 hrs in presence of amyloid beta (1 to 42) by phase-contrast microscopic analysis; format: functional, cell-based
SH-SY5Y [9] = test: Cytotoxicity against human SH-SY5Y cells assessed as reduction in cell viability at 5 uM incubated for 48 hrs by MTT assay; format: cell-based
SH-SY5Y [10] = test: Cytotoxicity against human SH-SY5Y cells assessed as reduction in cell viability at 1 uM incubated for 48 hrs by MTT assay; format: cell-based
Homo sapiens [11] = organism: Homo sapiens; test: Inhibition of amyloid beta (1 to 42 ) (unknown origin) self aggregation at 25 uM after 48 hrs by thioflavin-T fluorescence method relative to control
SH-SY5Y [12] = test: Neuroprotective activity against amyloid beta (1 to 42)-induced fade synapses in human SH-SY5Y cells at 20 uM incubated for 24 hrs in presence of amyloid beta (1 to 42) by phase-contrast microscopic analysis; format: functional, cell-based
SH-SY5Y [13] = test: Cytotoxicity against human SH-SY5Y cells assessed as reduction in cell viability at 100 uM incubated for 48 hrs by MTT assay; format: cell-based
Homo sapiens [14] = organism: Homo sapiens; test: Inhibition of amyloid beta (1 to 42 ) (unknown origin) self aggregation at 25 uM after 48 hrs by TEM analysis
SH-SY5Y [15] = test: Cytotoxicity against human SH-SY5Y cells assessed as reduction in cell viability at 25 uM incubated for 48 hrs by MTT assay; format: cell-based
SH-SY5Y [16] = test: Inhibition of H2O2-induced morphological changes in human SH-SY5Y cells at 20 uM incubated for 24 hrs by microscopic analysis; format: functional, cell-based
Cholinesterase = Cholinesterase (Equus caballus, UniProt P81908); test: Inhibition of equine serum BuChE using butyrylthiocholine iodide as substrate incubated for 5 mins followed by substrate addition and measured after 2 mins by Ellman's method; format: cell-free
Sequence of Cholinesterase (P81908 whole entry): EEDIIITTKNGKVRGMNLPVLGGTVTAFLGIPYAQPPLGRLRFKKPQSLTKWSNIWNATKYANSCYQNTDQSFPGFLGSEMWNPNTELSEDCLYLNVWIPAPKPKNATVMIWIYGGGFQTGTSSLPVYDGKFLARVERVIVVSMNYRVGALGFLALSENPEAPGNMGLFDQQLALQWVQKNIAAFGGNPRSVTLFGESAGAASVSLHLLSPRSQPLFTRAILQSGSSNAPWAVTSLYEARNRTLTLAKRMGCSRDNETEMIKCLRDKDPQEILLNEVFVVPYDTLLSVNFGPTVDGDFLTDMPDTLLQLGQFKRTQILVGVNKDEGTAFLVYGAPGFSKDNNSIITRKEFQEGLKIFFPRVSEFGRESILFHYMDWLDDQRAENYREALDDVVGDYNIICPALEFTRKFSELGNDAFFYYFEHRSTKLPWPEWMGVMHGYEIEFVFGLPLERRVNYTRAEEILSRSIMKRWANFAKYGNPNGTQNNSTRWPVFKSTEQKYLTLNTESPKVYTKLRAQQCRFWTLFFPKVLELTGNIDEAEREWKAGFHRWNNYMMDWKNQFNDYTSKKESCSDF

SH-SY5Y [17] = test: Cytotoxicity against human SH-SY5Y cells assessed as reduction in cell viability at 50 uM incubated for 48 hrs by MTT assay; format: cell-based
SH-SY5Y [18] = test: Neuroprotective activity against amyloid beta (1 to 42)-induced shrink on cell body in human SH-SY5Y cells at 20 uM incubated for 24 hrs in presence of amyloid beta (1 to 42) by phase-contrast microscopic analysis; format: functional, cell-based
[19] = target: Acetylcholinesterase (Electrophorus electricus) (UniProt O42275); test: Mixed inhibition of electric eel AchE using acetylthiocholine iodide as substrate incubated for 5 mins followed by substrate addition and measured after 2 mins by Ellman's method based Lineweaver-Burk plot analysis; settings: time 7.0 min
Sequence of Acetylcholinesterase (Electrophorus electricus) (O42275 24-633 limits assumed): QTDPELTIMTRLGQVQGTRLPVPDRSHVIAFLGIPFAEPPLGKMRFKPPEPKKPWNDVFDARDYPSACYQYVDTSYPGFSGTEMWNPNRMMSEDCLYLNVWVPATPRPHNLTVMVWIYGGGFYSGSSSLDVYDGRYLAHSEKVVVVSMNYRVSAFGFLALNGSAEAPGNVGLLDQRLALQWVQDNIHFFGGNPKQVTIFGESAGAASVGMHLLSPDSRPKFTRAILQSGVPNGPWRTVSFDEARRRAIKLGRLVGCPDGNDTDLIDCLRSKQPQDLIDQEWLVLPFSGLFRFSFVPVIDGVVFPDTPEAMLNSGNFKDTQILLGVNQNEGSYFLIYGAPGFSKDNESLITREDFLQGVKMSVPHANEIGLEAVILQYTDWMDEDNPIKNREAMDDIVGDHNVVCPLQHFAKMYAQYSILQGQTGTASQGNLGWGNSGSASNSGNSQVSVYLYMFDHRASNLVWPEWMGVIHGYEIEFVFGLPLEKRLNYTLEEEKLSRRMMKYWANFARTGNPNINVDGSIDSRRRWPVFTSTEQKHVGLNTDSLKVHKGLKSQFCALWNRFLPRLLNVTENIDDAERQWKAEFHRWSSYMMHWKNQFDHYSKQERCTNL

COc1ccc(Nc2nc(Nc3cccc(C(F)(F)F)c3)nc(N3CCN(c4ncccc4C#N)CC3)n2)cc1
Activity (SH-SY5Y [1]): 86.3% | Activity (SH-SY5Y [2]): 94.7% | Activity (SH-SY5Y [3]): Active | inhibition (SH-SY5Y [4]): Active | Activity (SH-SY5Y [5]): Active | IC50 (Acetylcholinesterase): 80 nM | inhibition (SH-SY5Y [6]): Active | Activity (SH-SY5Y [7]): Dose-dependent effect | Activity (SH-SY5Y [8]): Active | Activity (SH-SY5Y [9]): 96.4% | Activity (SH-SY5Y [10]): 98.1% | inhibition (Homo sapiens [11]): 82.4% | Activity (SH-SY5Y [12]): Active | Activity (SH-SY5Y [13]): 83.3% | inhibition (Homo sapiens [14]): Active | Activity (SH-SY5Y [15]): 93.8% | inhibition (SH-SY5Y [16]): Active | IC50 (Cholinesterase): 2020 nM | Activity (SH-SY5Y [17]): 89.6% | Activity (SH-SY5Y [18]): Active

COc1ccc(Nc2nc(Nc3ccccc3F)nc(N3CCN(c4ncccc4C#N)CC3)n2)cc1
IC50 (Acetylcholinesterase): 1410 nM | inhibition (Homo sapiens [11]): 68.5% | IC50 (Cholinesterase): 4130 nM

N#Cc1cccnc1N1CCN(c2nc(Nc3cccc(C(F)(F)F)c3)nc(Nc3ccc(F)cc3F)n2)CC1
IC50 (Acetylcholinesterase): 72 nM | inhibition (Homo sapiens [11]): 81.2% | IC50 (Cholinesterase): 2850 nM

Cc1ccc(Nc2nc(Nc3ccc(F)c(Cl)c3)nc(N3CCN(c4ncccc4C#N)CC3)n2)cc1
IC50 (Acetylcholinesterase): 1700 nM | inhibition (Homo sapiens [11]): 63.5% | IC50 (Cholinesterase): 5360 nM

N#Cc1cccnc1N1CCN(c2nc(Nc3ccc(F)cc3)nc(Nc3cccc(C(F)(F)F)c3)n2)CC1
IC50 (Acetylcholinesterase): 84 nM | inhibition (Homo sapiens [11]): 80.4% | IC50 (Cholinesterase): 4890 nM

N#Cc1cccnc1N1CCN(c2nc(Nc3cccc(C(F)(F)F)c3)nc(Nc3ccc(F)c(Cl)c3)n2)CC1
Activity (SH-SY5Y [1]): 84.3% | Activity (SH-SY5Y [2]): 95.7% | Activity (SH-SY5Y [3]): Active | inhibition (SH-SY5Y [4]): Active | Activity (SH-SY5Y [5]): Active | IC50 (Acetylcholinesterase): 59 nM | inhibition (SH-SY5Y [6]): Active | Activity (SH-SY5Y [7]): Active | Activity (SH-SY5Y [8]): Active | Activity (SH-SY5Y [9]): 95.4% | inhibition [19]: Active | Activity (SH-SY5Y [10]): 97.1% | inhibition (Homo sapiens [11]): 83.7% | Activity (SH-SY5Y [12]): Active | Activity (SH-SY5Y [13]): 80.3% | inhibition (Homo sapiens [14]): Active | Activity (SH-SY5Y [15]): 92.8% | inhibition (SH-SY5Y [16]): Active | IC50 (Cholinesterase): 3600 nM | Activity (SH-SY5Y [17]): 88.6% | Activity (SH-SY5Y [18]): Active

COc1cc(/C=C/C(=O)CC(=O)/C=C/c2ccc(O)c(OC)c2)ccc1O
inhibition (Homo sapiens [11]): 55.3% | inhibition (Homo sapiens [14]): Active

N#Cc1cccnc1N1CCN(c2nc(Nc3cccc(C(F)(F)F)c3)nc(NC3CC3)n2)CC1
IC50 (Acetylcholinesterase): 528 nM | inhibition (Homo sapiens [11]): 60.7% | IC50 (Cholinesterase): 5250 nM

Cc1ccc(Nc2nc(Nc3cccc(C(F)(F)F)c3)nc(N3CCN(c4ncccc4C#N)CC3)n2)cc1
IC50 (Acetylcholinesterase): 153 nM | inhibition (Homo sapiens [11]): 70.5% | IC50 (Cholinesterase): 2210 nM
